Assay results reported in patent US4874779A, “Mitomycin phosphate derivatives” (priority 1988, dated 1989).
pIC50: −log10 of the molar value. Structures can show the parent of a compound that is named as a salt. Where two headings read alike, the source gives them in different places.

Legend:
[1] = system: human lung tumor cell line H2981; assay: Cytotoxicity to H2981 cells by inhibition of 3H-Thy incorporation; format: cell-based; details: for cytotoxic activity (in words): without alkaline phosphatase pre-treatment; for pIC50: Homo sapiens
Description: Cytotoxicity of compounds V, IIa, and mitomycin C was determined using human lung tumor cell line H2981. Thus a suspension of H2981 cells in Iscove's medium (IMDM) containing 10% fetal calf serum were plated into 96-well microtiter plates (10,000 cells/well). After 1 hr, the medium was removed, a pH 7.2 phosphate buffered saline solution (PBS) of the drug was added, and incubation at 37° C. was commenced for 1 hour. The cells were then washed twice, and incubation was continued an additional 17 hours, followed by a 6 hour pulse with ^3 H-Thy (1.0 μCi/well). The plates were frozen at -70° C. to detach the cells, and the cells were harvested onto glass fiber discs. The filters were counted on a Beckman 3701 scintillation counter. Inhibition of ^3 H-Thy incorporation was used as an indicator for cytotoxic effects.

[2] = Relative toxicity in Balb C nu/nu mice; format: in vivo; details: for LD50 / MTD at 600 h: mouse, in vivo, ip; for LD50: two equal doses spaced 4 days apart; for MTD at 600 h: 4 equal doses over a 25 day period, read-out: total amount tolerated
Description: The relative toxicities of IIa and V were determined in Balb C nu/nu mice. […] Total amounts of up to 40 mg/kg of IIa and 100 mg/kg of V were tolerated if given in 4 equal doses over a 25 day period.

human lung tumor H2981 = assay: Antitumor activity against subcutaneous human lung tumor H2981 xenograft in Balb C nu/nu female mice; format: in vivo; details: for time required to reach an average tumor volume of 750 mm^3: IIa 0.2 ml of 1 mg/ml, V 0.2 ml of 3 mg/ml, i.p. days 15, 21, 31, 37, untreated control 27 days
Description: The arrows indicate the days on which drugs were given.
Antitumor activity of the compound of Example 1 (V) was evaluated in Balb C nu/nu female mice (4-6 weeks old, purchased from Life Sciences, St. Petersburg, Fl) implanted subcutaneously with a xenograft of human lung tumor H2981 in the right hind flank. Compound IIa served as positive control. Drug treatment was initiated on day 15 (day 0 being the day of tumor implant) when the tumors were approximately 100 mm^3 in volume. 0.2 Ml of the test compounds (1 mg/ml for IIa and 3 mg/ml for V in phosphate-buffered saline) were injected intraperitoneally on days 15, 21, 31, and 37. The results are graphically shown in FIG. 1 and indicate that the time required to reach an average tumor volume of 750 mm^3 was 45 days in mice treated with IIa, 63 days in mice treated with V, and 27 days in the untreated control group.

| SMILES | cytotoxicity after pre-treatment with alkaline phosphatase (in words) ([1]; H2981 cells, V pre-treated with alkaline phosphatase) | cytotoxic activity (in words) ([1]; H2981 cells) | LD50 [2] | MTD at 600 h [2] | tolerability of prodrug (in words) ([2]; relative to IIa) | antitumor effect compared with the corresponding alcohol (IIa) (human lung tumor H2981; H2981 xenograft, i.p.) | time required to reach an average tumor volume of 750 mm^3 (human lung tumor H2981) | pIC50 ([1]; H2981 cells, 1 hour drug exposure in pH 7.2 PBS at 37° C., 17 hours further incubation, 6 hour 3H-Thy pulse, read-out: IC50 (cytotoxicity, inhibition of 3H-Thy incorporation)) | pIC50 ([1]; H2981, 1 h, pH 7.2, read-out: IC50 (cytotoxicity, inhibition of 3H-Thy incorporation)) |
| --- | --- | --- | --- | --- | --- | --- | --- | --- | --- |
| COC12C(COC(N)=O)C3=C(C(=O)C(C)=C(NCCOP(=O)(O)O)C3=O)N1CC1NC12 (centres unmarked) [Example 1, 9a-Methoxy-7-[[(phosphonooxy)ethyl]amino]mitosane disodium salt] | cytotoxicity comparable to that of IIa and mitomycin C | A small amount of cytotoxic activity | 90 mg/kg | ≤ 100 mg/kg | significantly more prodrug was tolerated because of its reduced toxicity | stronger antitumor effect than the corresponding alcohol | 63 days |  |  |
| CO[C@@]12[C@H](COC(N)=O)C3=C(C(=O)C(C)=C(N)C3=O)N1C[C@@H]1N[C@@H]12 [mitomycin C] |  | highly cytotoxic |  |  |  |  |  | ~6.00 |  |
| COC12C(COC(N)=O)C3=C(C(=O)C(C)=C(NCCO)C3=O)N1CC1NC12 (centres unmarked) [IIa] |  | highly cytotoxic | 45 mg/kg | ≥ 40 mg/kg |  |  | 45 days |  | ~6.00 |
